# In PMC7076440, “New Preclinical Development of a c-Met Inhibitor and Its Combined Anti-Tumor Effect in c-Met-Amplified NSCLC” (Pharmaceutics, 2020):
# Values joined by “and” are separate entries in the source; they are usually repeats but may differ in a detail not shown here. Identical values can stand only once.
# Key:
# [1] = Forced degradation study; format: physicochemical
# Description: ABN401 was dissolved in 50/50 (v/v) % of acetonitrile and water, to give a stock solution of 2 mg/mL. The stock sample was diluted to a final concentration of 0.5 mg/mL and subjected to various stresses such as 1.0 N HCl acid (pH 1.1), 1.0 N NaOH base (pH 12.3), 1.0% hydrogen peroxide, heat (in solution and as a solid material) in an oven at 60 °C, and UV-Vis light (in solution) in a closed quartz container at 20 °C with UV light at 16.08 mW/m2; Vis 5.7 kLux. The samples were tested with quantitative HPLC method at 24, 48, and 72 h. The results were expressed in area % for recovery. The control sample was left at ambient conditions to simulate the potential loss of ABN401 when left at ambient conditions (> 99.0%).
# [2] = Short storage stability of oral gavage formulation in cold chamber; format: physicochemical
# Description: The solubility of ABN401 in two different acidic buffers (i.e., acetate and citrate) were analyzed at three different pH values: 4.0, 4.5, and 5.0 (Table 2). […] Different concentrations of PEG400, cremophor EL, and polysorbate 80 were also evaluated as co-solvents to ABN401 in 0.1 M acetate buffer at pH 4.0 to investigate the solubility enhancement. […] Therefore, 20% PEG400 in 0.1 M sodium acetate was selected as an oral gavage formulation and intravenous solution for in vivo studies. A short storage stability test was performed for 8 days in a cold chamber to determine the concentration recovery yields at low and high concentrations, which were 0.03 mg/mL and 133 mg/mL, respectively. […] As a result, pH 4.0 yielded the highest percentage recovery in both low and high concentrations (Table 3).
# [3] = Pharmacokinetic study in beagle dogs; format: in vivo; conditions: for BA: PO; for BA / Tmax / AUC(0-inf) / AUC(0-t) / Cmax / MRT last / half-life: beagle dogs
# Description: Male beagle dogs were purchased from Marshall, Beijing, China. They were housed under controlled humidity, temperature, and a 12L:12D lighting schedule. Before the experiment, the animals were fed less than 300 g/day for 2 days and those with a body weight around 7.0 ± 0.5 kg were selected for the pharmacokinetic study (n = 3). They were fasted overnight before the experiments but allowed to drink water. This study was reviewed, assessed, and approved by the Institutional Animal Care and Use Committee (IACUC) of the Korea Institute of Toxicology (KIT). The project identification codes were N117008 and N116047, signed on 31 May 2017. For the experiments, 0.5-mL blood samples were collected from each animal at selected intervals and loaded into K2-EDTA tubes. After centrifugation at 13,200 rpm for 5 min, quantitative analysis was performed using LC-MS/MS. Acetic acid buffer (0.1 M) at pH 4.0 with 20% PEG400 was selected as the intravenous solution for ABN401 and WinNonlinTM (Version 5.2.1, Pharsight, USA) was used to calculate the pharmacokinetic parameters (i.e., T1/2: terminal half-life, Cmax: maximum observed peak concentration, Tmax: time to reach Cmax, AUClast: area under the time-concentration curve from zero to the last quantifiable time-point, AUCinf: area under the time-concentration curve from zero to infinity, MRTlast: mean residence time from zero to the last quantifiable time-point). The bioavailability (BA) of each dose was calculated using the following equation:Bioavailability = (AUClast_po/AUClast_iv) × 100(5)
# HPLC system (Agilent 1200, Santa Clara, CA, USA), consisting of a binary pump, a degasser, and a refrigerated autosampler (at 10 °C), was used in this study. Analytical samples were separated on the Agilent Eclipse XDB-C18 (3.5 um, 2.1 × 50 mm) at 23 °C. The mobile phase was composed of solvent A (10 mM ammonium formate in purified water) and solvent B (0.1 % formic acid in acetonitrile) and delivered at a flow rate of 0.3 mL/min. In this study, the gradient separation (i.e., the initial condition of the mobile phase consisted of 80% of solvent A and 20% of solvent B, then solvent A was decreased to 0% within 2 min and maintained for 5 min, followed by an increase to 80% within 0.2 min, maintained until 10 min) was used with a 10-min run time per sample. The MS system was composed of an API 4000 Sciex triple quadruple mass spectrometer (AB Sciex, Framingham, MA, USA). The triple quadrupole mass spectrometer was equipped with a turbo ion spray source. The MS/MS detection involved multiple reaction-monitoring in the positive ionization mode. The intensive tracer ion mass for each compound was 567.5 → 467.2 for ABN401 and 237.3 → 194.11 for carbamazepine as an internal standard. The conditions for the electrospray interface were: curtain gas, 20 psi; collision gas, medium; ion spray voltage, 5000 V; temperature, 500°C; ion source gas 1, 50 psi and ion source gas 2, 55 psi. The optimized voltage parameters for the analytes were as follows: declustering potential (61 V), entrance potential (10 V), collision energy (28 V), and collision cell exit potential (12 V). Data acquisition, quantification, and calculations were performed with the Analyst software version 1.4.2 (AB Sciex, Framingham, MA, USA).
# [4] = parameters: method as in doi:10.1016/j.dmpk.2016.10.205; conditions: rats; cited from earlier work
# [5] = male, beagle, dog, plasma, iv, 1 mg/kg, mean ± SD
# [6] = male, beagle, dog, plasma, po, 1 mg/kg, capsule with MCC, mean ± SD
# [7] = male, beagle, dog, plasma, po, 5 mg/kg, capsule with MCC, mean ± SD
# [8] = male, beagle, dog, plasma, po, 5 mg/kg, capsule without MCC, mean ± SD
# [9] = male, beagle, dog, plasma, po, 10 mg/kg, capsule with MCC, mean ± SD
structure (smiles),measurement,setting,value
CN1CCN(Cc2ccc(-c3cnc(N4CCOC(Cn5nnc6ncc(-c7cnn(C)c7)nc65)C4)nc3)cc2)CC1 (stereo not drawn) [ABN401],difference after exposure to acidic and basic pH,"[1]; 1.0 N HCl (pH 1.1), 1.0 N NaOH (pH 12.3), 72 h",approximately 1.7%
same,sensitivity to UV/Vis light,[1]; in solution,highly sensitive
same,recovery of control sample,"[1]; left at ambient conditions, area %",> 99.0%
same,Recovery,"[2]; 0.03 mg/mL, pH 2.0, day 8, 2–8 °C",104.4%
same,Recovery,"[2]; 0.03 mg/mL, pH 3.0, day 8, 2–8 °C",96.5%
same,Recovery,"[2]; 0.03 mg/mL, pH 4.0, day 0, 2–8 °C",100.0%
same,Recovery,"[2]; 0.03 mg/mL, pH 4.0, day 8, 2–8 °C",97.0%
same,Recovery,"[2]; 133 mg/mL, pH 2.0, day 8, 2–8 °C",94.8%
same,Recovery,"[2]; 133 mg/mL, pH 3.0, day 8, 2–8 °C",94.4%
same,Recovery,"[2]; 133 mg/mL, pH 4.0, day 0, 2–8 °C",98.0%
same,Recovery,"[2]; 133 mg/mL, pH 4.0, day 8, 2–8 °C",98.0%
same,BA,"[3]; 1 mg/kg, capsule with MCC, mean ± SD",28.3 ± 15.8%
same,BA,"[3]; 5 mg/kg, capsule with MCC, mean ± SD",30.7% and 30.7 ± 1.7%
same,BA,"[3]; 5 mg/kg, capsule without MCC, mean ± SD",30.7% and 30.7 ± 15.1%
same,BA,"[3]; 10 mg/kg, capsule with MCC, mean ± SD",11.3 ± 2.7%
same,Tmax,"[3]; male, beagle, dog, plasma, iv, 1 mg/kg",0.083 h
same,AUC(0-inf),[3]; [5],287 ± 108 ng·h/mL
same,AUC(0-t),[3]; [5],266 ± 105 ng·h/mL
same,Cmax,[3]; [5],308 ± 271 ng/mL
same,MRT last,[3]; [5],1.5 ± 0.7 h
same,half-life,[3]; [5],114 ± 42 min
same,AUC(0-inf),[3]; [6],96.2 ± 40.7 ng·h/mL
same,AUC(0-t),[3]; [6],75.4 ± 42 ng·h/mL
same,Cmax,[3]; [6],8 ± 3.8 ng/mL
same,MRT last,[3]; [6],7.6 ± 2.5 h
same,Tmax,[3]; [6],1.3 ± 0.6 h
same,half-life,[3]; [6],564 ± 192 min
same,AUC(0-inf),[3]; [7],456 ± 28.5 ng·h/mL
same,AUC(0-t),[3]; [7],409 ± 23 ng·h/mL
same,Cmax,[3]; [7],50.8 ± 12.4 ng/mL
same,MRT last,[3]; [7],8.6 ± 2.7 h
same,Tmax,[3]; [7],1.5 ± 0.7 h
same,half-life,[3]; [7],456 ± 270 min
same,AUC(0-inf),[3]; [8],425 ± 218 ng·h/mL
same,AUC(0-t),[3]; [8],409 ± 201 ng·h/mL
same,Cmax,[3]; [8],60.3 ± 29.1 ng/mL
same,MRT last,[3]; [8],6.4 ± 0.7 h
same,Tmax,[3]; [8],2 h
same,half-life,[3]; [8],294 ± 54 min
same,Tmax,"[3]; male, beagle, dog, plasma, po, 10 mg/kg, across the doses 1, 5, 10 mg/kg",1.3 to 2 h
same,AUC(0-inf),[3]; [9],424 ± 186 ng·h/mL
same,AUC(0-t),[3]; [9],302 ± 72 ng·h/mL
same,Cmax,[3]; [9],52.5 ± 13.5 ng/mL
same,MRT last,[3]; [9],6.3 ± 3.4 h
same,Tmax,[3]; [9],2 h
same,half-life,[3]; [9],462 ± 348 min
same,bioavailability,"[3]; male, beagle, dog, plasma, oral, dogs, except at 10 mg/kg",~30%
same,absolute bioavailability,[4],45%
